# Key:
# HUVECs = test: FACS: binding of misfolded proteins and BiP to HUVECs; assay type: cell-based, human
# Procedure: For these experiments HUVECs were isolated by trypsinization. After trypsinization cells were collected in RPMI 1640, containing P/S and 10% FCS and centrifuged. After centrifugation cells were resuspended in RPMI medium without FCS at a concentration of 1.250.000 cells/250 μl. Individual 4-ml tubes (polypropylene, Greiner), containing 250 μl cell suspensions were made. To each tube 75 μl of a sample, containing either, • a. buffer (PBS) only, or • b. 25 μl PBS+50 μl BiP (1.16 mg/ml), or • c. 50 μl buffer with 25 μl oxLDL (1 mg/ml), or • d. 74 μl buffer with 1 μl BSA-AGE (25 mg/ml), or • e. 24 μl PBS+1 μl BSA-AGE (25 mg/ml)+50 μl BiP (1.16 mg/ml), or • f. 25 μl oxLDL (1 mg/ml)+50 μl BiP (1.16 mg/ml), • g. 1.6 μl dIgIV-65 (20 mg/ml)+73.4 μl PBS • h. […]
# was added. Subsequently, the cells were incubated with the sample for approximately 30 minutes at 4° C. Next, cells were pelleted by centrifugation and the supernatant was discarded. Cells were washed subsequently with FACS buffer (PBS/0.5% BSA/0.05% m/v NaN3) at 4° C. and resuspended in FACS-buffer at approximately 1*10^5 cells/100 μl for subsequent analysis. Cell death was determined by adding 3 μl 7-aminoactinomycin D (7AAD) solution (prepared according to standard procedures). Binding of sample BSA-AGE (see elsewhere in this application for preparation details) was determined with anti-AGE monoclonal antibody 4B5 (10 μg/ml) and, after washing, with goat anti-mouse PE secondary antibodies (Jackson Immunoresearch, West Grove, USA). Binding of BSA-AGE was also assessed using the intrinsic fluorescence of BSA-AGE in the PE channel. Binding of oxidized LDL (oxLDL, oxidized for 56% following incubation with FeSO4; specific enhancement of Thioflavin T fluorescence) was determined with rabbit serum with anti-ApoB100 polyclonal antibodies at a concentration of 160 μg/ml and, after washing the cells, with FITC-labelled goat anti-rabbit antibodies (1:200, Jackson). Binding of dIgIV-65 was assessed by using anti-Human IgG antibody. BiP binding was determined using the earlier mentioned anti-FLAG antibody (M2, Sigma-Aldrich).
# immobilized BiP = target: T1, immobilized BiP (Homo sapiens, UniProt P11021); test: Depletion of solutions from misfolded proteins using immobilized BiP (ELISA); assay type: binding; conditions: BiP coated at 5 μg/ml
# T1 construct: The human BiP gene except the signal peptide encoding region was obtained from Geneart (Germany); linker […]; made in house; host or cells: HEK 293E cells, transient transfection, PABC674 vector; secreted into the medium
# T1 sequence (P11021 19-654): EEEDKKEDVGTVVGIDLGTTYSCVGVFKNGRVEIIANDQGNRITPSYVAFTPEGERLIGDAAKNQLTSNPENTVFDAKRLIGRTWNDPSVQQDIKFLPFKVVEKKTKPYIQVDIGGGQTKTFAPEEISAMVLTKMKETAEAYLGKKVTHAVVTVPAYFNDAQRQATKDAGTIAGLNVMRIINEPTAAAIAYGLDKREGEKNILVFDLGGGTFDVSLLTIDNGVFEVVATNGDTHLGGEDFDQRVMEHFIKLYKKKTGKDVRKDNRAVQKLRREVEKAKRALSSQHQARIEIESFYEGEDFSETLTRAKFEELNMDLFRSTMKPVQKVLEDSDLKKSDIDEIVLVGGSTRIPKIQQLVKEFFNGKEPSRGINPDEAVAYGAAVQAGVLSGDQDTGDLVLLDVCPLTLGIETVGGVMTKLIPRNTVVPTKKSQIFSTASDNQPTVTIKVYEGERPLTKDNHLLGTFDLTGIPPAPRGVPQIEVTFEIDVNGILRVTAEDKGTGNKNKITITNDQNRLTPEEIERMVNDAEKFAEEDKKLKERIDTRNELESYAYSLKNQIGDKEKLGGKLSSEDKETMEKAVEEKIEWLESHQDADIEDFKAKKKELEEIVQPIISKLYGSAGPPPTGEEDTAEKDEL
# Procedure: We analysed whether recombinant human BiP with a C-terminal FLAG-tag and His-tag can be applied for depleting solutions from misfolded proteins comprising crossbeta structure.
# BiP was coated at a concentration of 5 μg/ml at Greiner Microlon high-binding plates, for 1 h at room temperature with motion. As a negative control buffer was coated. ELISAs were performed essentially as described before. […] All binding buffers were PBS/0.1% (v/v) Tween20. Binding of dOVA was assayed using monoclonal anti-chicken egg albumin antibody (Sigma, A6075, 1:10.000 dilution) and RAMPO (Dako Cytomation, P0260, 1:3.000). […] Background signals obtained with buffer coated wells that were subsequently overlayed with protein solutions (see below), were subtracted from signals obtained with wells with coated BiP.
Substance,"Binding of misfolded protein to ECs (MFI ratio) (HUVECs; absence of BiP, 30 minutes at 4° C.)",Binding of misfolded protein to ECs (MFI ratio) (HUVECs; presence of BiP),Concentration at which binding to immobilized BiP is already maximum (immobilized BiP) [µg/mL],"Extraction from solution by immobilized BiP (immobilized BiP; 1, 10, 100 μg/ml misfolded protein)"
BSA-AGE,13.8,10.2,,
HbAGE: human haemoglobin glycated with glucose-6-phosphate for 75 weeks,,,1,extracted specifically by BiP to an even higher extent
